Test results from paper PMC12514841 (Protein Science : A Publication of the Protein Society, 2025).
Converted amounts (≈) assume the structure as drawn. “And” between values parts separate entries of the source, which are not always exact repeats. Equal values may be shown once. Read-outs that look alike come from different tables or passages of the source.

How the values were obtained:
wild-type (WT) BlaC [1] = biological target: T1, wild-type (WT) BlaC (Mycobacterium tuberculosis, UniProt P9WKD3); parameters: method as in Radojković, Chikunova, et al., [2025]; details: 100 mM NaPi, pH 6.4, 25°C, ref Radojković, Chikunova, et al., [2025]; cited from earlier work
T1 construct: 6xHis tag with TEV cleavage site (N); made in house; host or cells: E. coli BL21 (DE3) pLysS
T1 sequence (P9WKD3 35-307): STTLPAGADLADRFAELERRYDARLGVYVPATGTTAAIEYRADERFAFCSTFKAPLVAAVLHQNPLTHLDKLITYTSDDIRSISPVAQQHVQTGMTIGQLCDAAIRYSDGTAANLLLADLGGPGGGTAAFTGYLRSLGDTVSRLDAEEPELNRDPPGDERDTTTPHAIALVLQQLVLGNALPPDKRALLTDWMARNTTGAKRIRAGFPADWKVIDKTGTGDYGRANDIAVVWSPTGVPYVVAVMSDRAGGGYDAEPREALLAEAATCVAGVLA

wild-type (WT) BlaC [2] = biological target: T1, wild-type (WT) BlaC; type: biochemical; details: pH 6.4
[3] = test system: E. coli KA797 cells producing BlaC I105G; type: cell-based
[4] = test system: E. coli KA797 cells producing BlaC I105G-G132N; type: cell-based
[5] = test system: E. coli KA797 cells producing BlaC I105Y-S130G; type: cell-based
[6] = test system: E. coli KA797 cells producing BlaC S130G; type: cell-based
[7] = test system: E. coli KA797 cells producing wild-type BlaC; assay: Minimum inhibitory concentration determination; type: cell-based; details: Escherichia coli
Experimental: (§1) The MIC was determined for E. coli KA797 cells carrying various pUK21‐blaC plasmids with the lac promoter and tat‐signal peptide upstream of the blaC gene (Figure S7) (Radojković, van Ingen, et al., [2025]). Overnight cultures of E. coli were inoculated into fresh LB medium with 50 μg/mL kanamycin and incubated at 37°C until OD600 reached 2. […] The concentration of the selection antibiotic was increased in 2‐fold increments. The plate was incubated for 16 h at 37°C in a Bioscreen C Pro plate reader with continuous shaking, and the OD600 was recorded every 15 min. The MIC was defined as the concentration of the selection antibiotic at which no increase in OD600 was observed.

[8] = test system: E. coli KA797 cells producing BlaC I105Y; type: cell-based
wild-type BlaC = biological target: T2, wild-type BlaC (Mycobacterium tuberculosis, UniProt P9WKD3); type: biochemical
T2 construct: 6xHis tag with TEV cleavage site (N); made in house; host or cells: E. coli BL21 (DE3) pLysS
T2 sequence (P9WKD3 35-307): T1 sequence (P9WKD3 35-307)

[9] = test system: E. coli KA797 cells producing BlaC G132N; type: cell-based
[10] = test system: E. coli KA797 cells, pUK21 vector without blaC gene; assay: Minimum inhibitory concentration determination; type: cell-based; details: Escherichia coli, 16 h, 37°C, read-out: MIC carbenicillin
Experimental: as §1

[11] = in combination with carbenicillin at 50 μg/mL

## CC1(C)S[C@@H]2[C@H](NC(=O)[C@H](N)c3ccccc3)C(=O)N2[C@H]1C(=O)O [Ampicillin, ampicillin]
wild-type (WT) BlaC [1]
  K M ^app: 68 ± 3 µM
  k cat: 14 ± 2 s⁻¹
  k cat/K M ^app: 0.21 ± 0.01 μM^−1 s^−1 and 0.21 ± 0.01 ^a μM^−1 s^−1
wild-type (WT) BlaC [2]
  KMapp: 46 ± 12 µM
  k cat /K M ^app relative to the wild-type: 1
  kcat: 9 ± 1 s⁻¹
  kcat/KMapp: 0.21 ± 0.01 µM⁻¹ s⁻¹
  kcat/KMapp relative to the wild-type: 1

## O=C(Cc1cccs1)N[C@@H]1C(=O)N2C(C(=O)O)=C(/C=C/c3ccc([N+](=O)[O-])cc3[N+](=O)[O-])CS[C@H]12 [Nitrocefin, nitrocefin]
wild-type (WT) BlaC [2]
  K M ^app: 180 ± 70 µM
  k cat: 90 ± 20 s⁻¹
  k cat /K M ^app relative to the wild-type: 1
  k cat/K M ^app: 0.5 ± 0.2 ^a μM^−1 s^−1

## O=C(O)[C@H]1/C(=C/CO)O[C@@H]2CC(=O)N21 [Clavulanic acid, clavulanic acid]
[3]; [11]
  MIC clavulanic acid: 4 µg/mL
[4]; [11]
  MIC clavulanic acid: 16 µg/mL
[5]; [11]
  MIC clavulanic acid: 32 µg/mL
[6]; [11]
  MIC clavulanic acid: 4 µg/mL
[7]; read-out: MIC clavulanic acid, in combination with carbenicillin at 50 μg/mL
  MIC: 1 µg/mL
[8]; [11]
  MIC clavulanic acid: 2 µg/mL
wild-type BlaC
  incubation time after which the enzyme reaches its original activity again: 2 h
  time to full inhibition of the enzyme: < 5 min
[9]; [11]
  MIC clavulanic acid: 1 µg/mL

## CC1(C)S[C@@H]2[C@H](NC(=O)C(C(=O)O)c3ccccc3)C(=O)N2[C@H]1C(=O)O (stereo partly shown) [Carbenicillin, carbenicillin]
[3]; 16 h, 37°C
  MIC carbenicillin: 800 µg/mL (≈ 2110 µM)
[4]; 16 h, 37°C
  MIC carbenicillin: 800 µg/mL (≈ 2110 µM)
wild-type (WT) BlaC [1]
  K M ^app: 5.5 ± 0.7 µM
  k cat: 0.51 ± 0.02 s⁻¹
  k cat/K M ^app: 0.09 ± 0.01 ^a μM^−1 s^−1
[5]; 16 h, 37°C
  MIC carbenicillin: 800 µg/mL (≈ 2110 µM)
[6]; 16 h, 37°C
  MIC carbenicillin: 100 µg/mL (≈ 264 µM)
[10]
  MIC: 10 µg/mL (≈ 26.4 µM)
[7]; 16 h, 37°C, read-out: MIC carbenicillin
  MIC: 800 µg/mL (≈ 2110 µM)
[8]; 16 h, 37°C
  MIC carbenicillin: 6400 µg/mL (≈ 16900 µM)
[9]
  MIC times lower than the wild-type: 2 times
[9]; 16 h, 37°C
  MIC carbenicillin: 400 µg/mL (≈ 1060 µM)
wild-type (WT) BlaC [2]
  k cat /K M ^app relative to the wild-type: 1
